The term CC50 denotes the concentration at which the toxic effect on the cells reaches its halfway point. A word on the EC50: it is the concentration that produces a half-maximal response.

Data set [1] is described as follows: 50% toxic concentration on cell (TC50), neutral red.
A further data set has as its system H1N1. Put plainly: microbe, parasite or virus in culture. The class given is cell-based. The following applies: Influenza A virus, H1N1, read-out: H1N1 (EC50) μM.
The next data set has as its system CoxB3. Put plainly: Virus inhibition activity assay based on cytopathic effects (neutral red), CoxB3. The class given is cell-based. The following applies: read-out: CoxB3 (EC50) μM. (In general: Cytopathic effects are the visible damage that an infection or toxin causes in cultured cells.)
The test system of the next data set is EV71. The experiment in a line: Virus inhibition activity assay based on cytopathic effects (neutral red), EV71. The class given is cell-based. The conditions noted are these: Enterovirus A, EV71, read-out: EV71 (EC50) μM.
In another data set the test system is RSV. Put plainly: Virus inhibition activity assay based on cytopathic effects (neutral red), RSV. It is filed as cell-based. The following applies: human respiratory syncytial virus, read-out: RSV (EC50) μM.
The test system of another data set is HSV. The experiment in a line: Virus inhibition activity assay based on cytopathic effects (neutral red), HSV. The class given is cell-based. The conditions noted are these: read-out: HSV (EC50) μM.
For the next data set, the system named is H7N9. Put plainly: microbe, parasite or virus in culture. The conditions noted are these: Influenza A virus, H7N9, read-out: H7N9 (EC50) μM. It is filed as cell-based.
The next data set relates to HIV. Put plainly: microbe, parasite or virus in culture. It is filed as cell-based. The conditions noted are these: Human immunodeficiency virus 1, read-out: HIV (EC50) μM.

`COC1C(=O)N(Cc2ccccc2)c2ccc(Cl)cc2C1(O)c1ccccc1` (centres unmarked) [Example 29]: the CC50 in data set [1] was in the range of 50 to 100 µM. For the same compound, the EC50 in the data set on H1N1 was in the range of 5 to 50 µM; with CoxB3 it was 0.05 to 5 µM; with EV71, 5 to 50 µM; in the data set with RSV, 0.05 to 5 µM; with HSV, 50 to 120 µM; in the data set on H7N9 it was 0.05 to 5 µM. Moreover, the EC50 with HIV was in the range of 0.05 to 5 µM.

Values taken from patent US10993938B2 (priority 2017, dated 2021).
